Experimental data reported in patent US6350749B1, “Aminoguanidine hydrazone derivatives, process for producing the same and drugs thereof” (Takeda Chemical Industries, Ltd., priority 1998, dated 2002).

Assays:
[1] = target: T1, Na—H exchange (Rattus norvegicus, UniProt P26431); assay: Rat platelet swelling in sodium propionate solution (light transmittance of PRP), inhibition of Na—H exchange; type: cell-based; settings: test compound 10^−7 M, rat platelet rich plasma, value 1 minute after sodium propionate solution, 100% = difference between 1% DMSO and HOE-642 (10^−5M); for inhibition at 0.1 µM: 1 min, read-out: Inhibition Rate (%) [10^−7 M]
T1 construct: The blood was centrifuged at 3000 rpm for 5 seconds to obtain platelet rich plasma (PRP); from tissue; host or cells: platelets in platelet rich plasma from abdominal aortic blood of male Wistar rats
Method: Male Wistar rats (350-450 g) were anesthetized with sodium pentobarbital (50 mg/kg, i.p.). Using a disposable syringe pre-filled with 1.5 ml of 3.8% citric acid solution, 8.5 ml of blood was collected from the abdominal aorta. The blood was centrifuged at 3000 rpm for 5 seconds to obtain platelet rich plasma (PRP). The number of platelets in the PRP was counted by an automatic hemocytometer (Sysmex 2500, TOA Medical Electronics). The PRP was diluted with physiological saline to make the concentration of 40×10^4 platelets per 1 μl. A platelet aggregometer (Hematoracer, Niko Bioscience) was used for measurement of the platelet swelling. 200 μl of the PRP was poured into a cuvette and 600 μl of sodium propionate solution (Na propionate 135, glucose 10, Hepes 20, CaCl2 1, MgCl2 1; Units: mM; pH6.7) was added while stirring at 37° C. The change in the light transmittance of PRP which was an indicator of the platelet swelling was recorded on a plotter. The test compound was added 3 minutes before addition of the sodium propionate solution. The test compounds were dissolved in dimethylsulfoxide (DMSO).

T1 sequence (P26431 whole entry): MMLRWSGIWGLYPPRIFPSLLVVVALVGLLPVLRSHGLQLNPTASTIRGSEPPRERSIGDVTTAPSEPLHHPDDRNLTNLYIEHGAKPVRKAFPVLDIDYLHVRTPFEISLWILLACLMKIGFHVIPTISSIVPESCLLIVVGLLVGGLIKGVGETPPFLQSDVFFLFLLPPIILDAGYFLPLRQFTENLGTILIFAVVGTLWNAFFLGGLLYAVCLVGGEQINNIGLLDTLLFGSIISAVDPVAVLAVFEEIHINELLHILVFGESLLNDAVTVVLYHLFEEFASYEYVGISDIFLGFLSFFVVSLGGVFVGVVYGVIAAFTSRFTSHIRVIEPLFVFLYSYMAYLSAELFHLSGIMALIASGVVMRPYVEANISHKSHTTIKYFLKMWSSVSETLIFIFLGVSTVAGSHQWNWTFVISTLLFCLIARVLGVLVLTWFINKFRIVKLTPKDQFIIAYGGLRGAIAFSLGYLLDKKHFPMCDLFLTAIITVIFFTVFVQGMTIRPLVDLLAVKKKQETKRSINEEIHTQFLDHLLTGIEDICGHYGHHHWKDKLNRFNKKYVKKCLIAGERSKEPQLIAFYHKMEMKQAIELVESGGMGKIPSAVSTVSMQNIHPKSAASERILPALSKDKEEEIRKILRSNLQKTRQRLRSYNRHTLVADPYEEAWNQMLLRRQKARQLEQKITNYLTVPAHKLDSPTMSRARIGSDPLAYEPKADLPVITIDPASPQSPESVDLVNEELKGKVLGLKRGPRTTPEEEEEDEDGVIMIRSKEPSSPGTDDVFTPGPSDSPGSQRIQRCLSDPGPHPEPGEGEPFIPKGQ

Row | inhibition at 0.1 µM [1] [%] | melting point | Inhibition Rate (%) [10^−7 M] [1] [%] | Compound
1 | 86 | 187 °C (dec.) | – | Cc1ccccc1C1CC(=NNC(=N)N)c2c(C)c[nH]c2C1.Cl (stereo not drawn) [Compound 6, 4-guanidinoimino-3-methyl-6-(2-methylphenyl)-4,5,6,7-tetrahydroindole hydrochloride]
2 | 76 | 196 to 200 °C | – | CCc1n[nH]c2c1C(=NNC(=N)N)CC(c1ccccc1Cl)C2.Cl (stereo not drawn) [Compound 27, 6-(2-chlorophenyl)-3-ethyl-4-guanidinoimino-4,5,6,7-tetrahydroindazole hydrochloride]
3 | 70 | 285 °C (dec.) | – | Cc1coc2c1C(=NNC(=N)N)CC(c1cccs1)C2.Cl (stereo not drawn) [Compound 48, 4-guanidinoimino-3-methyl-6-(2-thienyl)-4,5,6,7-tetrahydrobenzofuran hydrochloride]
4 | – | 204 °C (dec.) | 78 | Cc1ccnc2c1C(=NNC(=N)N)CC(c1ccccc1Cl)C2.Cl (stereo not drawn) [Compound 61, 7-(2-chlorophenyl)-5-guanidinoimino-4-methyl-5,6,7,8-tetrahydroquinoline hydrochloride]
5 | 70 | 161 °C (dec.) | – | Cc1ccnc2c1C(=NNC(=N)N)CC(c1ccccc1O)C2.Cl (stereo not drawn) [Compound 68, 5-guanidinoimino-7-(2-hydroxyphenyl)-4-methyl-5,6,7,8-tetrahydroquinoline hydrochloride]
6 | 81 | 225 °C (dec.) | – | Cc1ccnc2c1C(=NNC(=N)N)CC(c1cccs1)C2.Cl (stereo not drawn) [Compound 70, 5-guanidinoimino-4-methyl-7-(2-thienyl)-5,6,7,8-tetrahydroquinoline hydrochloride]
7 | 76 | 184 to 187 °C | – | Cc1ccsc1C1CC(=NNC(=N)N)c2c(C)ccnc2C1.Cl (stereo not drawn) [Compound 73, 5-guanidinoimino-4-methyl-7-(3-methyl-2-thienyl)-5,6,7,8-tetrahydroquinoline hydrochloride]
8 | 98 | 203 °C (dec.) | – | Cc1ccnc2c1C(=NNC(=N)N)CC(c1sccc1Cl)C2.Cl (stereo not drawn) [Compound 74, 7-(3-chloro-2-thienyl)-5-guanidinoimino-4-methyl-5,6,7,8-tetrahydroquinoline hydrochloride]
9 | 77 | 158 to 159 °C | – | COc1ccnc2c1C(=NNC(=N)N)CC(c1ccccc1Cl)C2.CS(=O)(=O)O (stereo not drawn) [Compound 79, 7-(2-chlorophenyl)-5-guanidinoimino-4-methoxy-5,6,7,8-tetrahydroquinoline methanesulfonate]
10 | 69 | 234 to 235 °C (dec.) | – | Cc1n[nH]c2c1C(=NNC(=N)NO)CC(c1ccccc1Cl)C2.Cl (stereo not drawn) [Compound 93, 6-(2-chlorophenyl)-4-(1-hydroxyguanidin-3-yl)imino-3-methyl-4,5,6,7-tetrahydroindazole hydrochloride]
11 | 100 | 204 °C (dec.) | – | Cc1n[nH]c2c1C(=NNC(=N)N)CC(c1sccc1Cl)C2.Cl (stereo not drawn) [Compound 119, 6-(3-chloro-2-thienyl)-4-guanidinoimino-3-methyl-4,5,6,7-tetrahydroindazole hydrochloride]
12 | 81 | 243 to 245 °C | – | Cc1ccnc2c1C(=NNC(=N)N)CC(c1ccsc1Br)C2.Cl (stereo not drawn) [Compound 123, 7-(2-bromothiophen-3-yl)-5-guanidinoimino-4-methyl-5,6,7,8-tetrahydroquinoline hydrochloride]
13 | 98 | ≥ 300 °C | – | Cc1n[nH]c2c1C(=NNC(=N)N)CC(c1cc(Cl)sc1Cl)C2.Cl (stereo not drawn) [Compound 127, 6-(2,5-dichlorothiophen-3-yl)-4-guanidinoimino-3-methyl-4,5,6,7-tetrahydroindazole hydrochloride]
14 | 78 | 190 to 192 °C (dec.) | – | Cc1n[nH]c2c1C(=NNC(=N)NO)CC(c1cc(Cl)sc1Cl)C2.Cl (stereo not drawn) [Compound 128, 6-(2,5-dichlorothiophen-3-yl)-4-(1-hydroxyguanidin-3-yl)imino-3-methyl-4,5,6,7-tetrahydroindazole hydrochloride]
15 | 80 | 241 to 243 °C | – | Cc1cnnc2c1C(=NNC(=N)N)CC(c1ccccc1Cl)C2.Cl (stereo not drawn) [Compound 129, 7-(2-chlorophenyl)-5-guanidinoimino-4-methyl-5,6,7,8-tetrahydrocinnoline hydrochloride]
16 | 88 | ≥ 300 °C | – | Cc1cnnc2c1C(=NNC(=N)N)CC(c1cc(Cl)sc1Cl)C2.Cl (stereo not drawn) [Compound 131, 7-(2,5-dichlorothiophen-3-yl)-5-guanidinoimino-4-methyl-5,6,7,8-tetrahydrocinnoline hydrochloride]
17 | 87 | 244 to 245 °C (dec.) | – | CCc1cnnc2c1C(=NNC(=N)N)CC(c1ccccc1Cl)C2.CS(=O)(=O)O (stereo not drawn) [Compound 133, 7-(2-chlorophenyl)-5-guanidinoimino-4-ethyl-5,6,7,8-tetrahydrocinnoline methanesulfonate]

Row | Compound | inhibition at 0.1 µM [1] [%] | melting point | Inhibition Rate (%) [10^−7 M] [1] [%]
18 | CS(=O)(=O)O.Cc1ccnc2c1C(=NNC(=N)N)CC(c1cc(Cl)sc1Cl)C2 (single isomer, unassigned; (-)) [Compound 113, (−)-7-(2,5-dichlorothiophen-3-yl)-5-guanidinoimino-4-methyl-5,6,7,8-tetrahydroquinoline methanesulfonate] | 100 | 229 to 231 °C | –
